Twelve compounds from ChEMBL document CHEMBL1131884, “Dicationic 2-fluorenonylcarbapenems: potent anti-MRS agents with improved solubility and pharmacokinetic properties” (Bioorg Med Chem Lett, 1999) can be followed below.

The first assay relates to Staphylococcus aureus. As to the kind of experiment: Antibacterial activity against methicillin-resistant Staphylococcus aureus (MRSA). The format is functional.
What is called MIC50 is an inhibitory concentration at the 50% level, which refers to growth in some studies and to a panel of isolates in others. As usually defined, the MIC90 is an inhibitory concentration at the 90% level, which refers to growth in some studies and to a panel of isolates in others. Low values mean higher susceptibility, high ones lower susceptibility. In the case of `CC(=O)C[N+]12CC[N+](Cc3ccc4c(c3)C(=O)c3ccc(C5=C(C(=O)O)N6C(=O)[C@H]([C@@H](C)O)[C@H]6C5)cc3-4)(CC1)CC2.[Cl-].[Cl-]`, the MIC50 is 2 µg/mL and the MIC90 came to 8 µg/mL.
Taken in the same sequence, the figures for `C[C@@H](O)[C@H]1C(=O)N2C(C(=O)O)=C(c3ccc4c(c3)-c3ccc(C[N+]56CC[N+](CC(=O)Nc7cccc(C#N)c7)(CC5)CC6)cc3C4=O)[C@H](C)[C@H]12.[Cl-].[Cl-]` were 0.5 µg/mL and 1 µg/mL.
For `CC[N+]12CC[N+](Cc3ccc4c(c3)C(=O)c3ccc(C5=C(C(=O)O)N6C(=O)[C@H]([C@@H](C)O)[C@H]6C5)cc3-4)(CC1)CC2.[Cl-].[Cl-]`, in that order: 2 µg/mL and 4 µg/mL.
Compound `C[C@@H](O)[C@H]1C(=O)N2C(C(=O)O)=C(c3ccc4c(c3)-c3ccc(C[N+]56CC[N+](CC(=O)c7ccccc7)(CC5)CC6)cc3C4=O)[C@H](C)[C@H]12.[Cl-].[Cl-]` displayed an MIC50 of 1 µg/mL and an MIC90 of 2 µg/mL.
Taken in the same sequence, the figures for `C[C@@H](O)[C@H]1C(=O)N2C(C(=O)O)=C(c3ccc4c(c3)-c3ccc(C[N+]56CC[N+](CC#N)(CC5)CC6)cc3C4=O)[C@H](C)[C@H]12.[Cl-].[Cl-]` were 2 µg/mL and 4 µg/mL.
As to `C[C@@H](O)[C@H]1C(=O)N2C(C(=O)O)=C(c3ccc4c(c3)-c3ccc(C[N+]56CC[N+](CC(=O)Nc7ccccc7C(N)=O)(CC5)CC6)cc3C4=O)[C@H](C)[C@H]12.[Cl-].[Cl-]`, the MIC50 stood at 2 µg/mL and the MIC90 was determined as 4 µg/mL.
As to `C[C@@H](O)[C@H]1C(=O)N2C(C(=O)O)=C(c3ccc4c(c3)-c3ccc(C[N+]56CC[N+](C)(CC5)CC6)cc3C4=O)[C@H](C)[C@H]12.[Cl-].[Cl-]`, the MIC50 was determined as 2 µg/mL and the MIC90 is 4 µg/mL.
Taken in the same sequence, the figures for `C[C@@H](O)[C@H]1C(=O)N2C(C(=O)O)=C(c3ccc4c(c3)-c3ccc(C[N+]56CC[N+](CC(=O)Nc7cccc(CO)c7)(CC5)CC6)cc3C4=O)[C@H](C)[C@H]12.[Cl-].[Cl-]` were 1 µg/mL and 2 µg/mL.
Turning to `C[C@@H](O)[C@H]1C(=O)N2C(C(=O)O)=C(c3ccc4c(c3)-c3ccc(C[N+]56CC[N+](CC(=O)N(C)C)(CC5)CC6)cc3C4=O)C[C@H]12.[Cl-].[Cl-]`, the MIC50 is 4 µg/mL and the MIC90 was 4 µg/mL.
In turn, `COC(=O)C[N+]12CC[N+](Cc3ccc4c(c3)C(=O)c3ccc(C5=C(C(=O)O)N6C(=O)[C@H]([C@@H](C)O)[C@H]6C5)cc3-4)(CC1)CC2.[Cl-].[Cl-]` came in with an MIC50 of 8 µg/mL and an MIC90 of 16 µg/mL.
In the case of `CNC(=O)C[N+]12CC[N+](Cc3ccc4c(c3)C(=O)c3ccc(C5=C(C(=O)O)N6C(=O)[C@H]([C@@H](C)O)[C@H]6C5)cc3-4)(CC1)CC2.[Cl-].[Cl-]`, the MIC50 was 2 µg/mL and the MIC90 was 8 µg/mL.
For `C[C@@H](O)[C@H]1C(=O)N2C(C(=O)O)=C(c3ccc4c(c3)-c3ccc(C[N+]56CC[N+](CC(=O)c7ccccc7)(CC5)CC6)cc3C4=O)C[C@H]12.[Cl-].[Cl-]`, in that order: 2 µg/mL and 4 µg/mL.

A further assay deals with Staphylococcus sp. As to the kind of experiment: Antibacterial activity against methicillin-resistant coagulase negative Staphylococci (MRCNS). The format is functional.
`CC(=O)C[N+]12CC[N+](Cc3ccc4c(c3)C(=O)c3ccc(C5=C(C(=O)O)N6C(=O)[C@H]([C@@H](C)O)[C@H]6C5)cc3-4)(CC1)CC2.[Cl-].[Cl-]` registered an MIC50 of 4 µg/mL and an MIC90 of 4 µg/mL.
Compound `C[C@@H](O)[C@H]1C(=O)N2C(C(=O)O)=C(c3ccc4c(c3)-c3ccc(C[N+]56CC[N+](CC(=O)Nc7cccc(C#N)c7)(CC5)CC6)cc3C4=O)[C@H](C)[C@H]12.[Cl-].[Cl-]` had an MIC50 of 1 µg/mL and an MIC90 of 2 µg/mL.
For `CC[N+]12CC[N+](Cc3ccc4c(c3)C(=O)c3ccc(C5=C(C(=O)O)N6C(=O)[C@H]([C@@H](C)O)[C@H]6C5)cc3-4)(CC1)CC2.[Cl-].[Cl-]`, in that order: 2 µg/mL and 4 µg/mL.
In turn, `C[C@@H](O)[C@H]1C(=O)N2C(C(=O)O)=C(c3ccc4c(c3)-c3ccc(C[N+]56CC[N+](CC(=O)c7ccccc7)(CC5)CC6)cc3C4=O)[C@H](C)[C@H]12.[Cl-].[Cl-]` displayed an MIC50 of 2 µg/mL and an MIC90 of 4 µg/mL.
For the compound `C[C@@H](O)[C@H]1C(=O)N2C(C(=O)O)=C(c3ccc4c(c3)-c3ccc(C[N+]56CC[N+](CC#N)(CC5)CC6)cc3C4=O)[C@H](C)[C@H]12.[Cl-].[Cl-]`, the MIC50 amounted to 4 µg/mL and the MIC90 turned out to be 8 µg/mL.
In turn, `C[C@@H](O)[C@H]1C(=O)N2C(C(=O)O)=C(c3ccc4c(c3)-c3ccc(C[N+]56CC[N+](CC(=O)Nc7ccccc7C(N)=O)(CC5)CC6)cc3C4=O)[C@H](C)[C@H]12.[Cl-].[Cl-]` showed an MIC50 of 2 µg/mL and an MIC90 of 8 µg/mL.
Turning to `C[C@@H](O)[C@H]1C(=O)N2C(C(=O)O)=C(c3ccc4c(c3)-c3ccc(C[N+]56CC[N+](C)(CC5)CC6)cc3C4=O)[C@H](C)[C@H]12.[Cl-].[Cl-]`, the MIC50 worked out at 4 µg/mL and the MIC90 was determined as 8 µg/mL.
Taken in the same sequence, the figures for `C[C@@H](O)[C@H]1C(=O)N2C(C(=O)O)=C(c3ccc4c(c3)-c3ccc(C[N+]56CC[N+](CC(=O)Nc7cccc(CO)c7)(CC5)CC6)cc3C4=O)[C@H](C)[C@H]12.[Cl-].[Cl-]` were 1 µg/mL and 4 µg/mL.
Taken in the same sequence, the figures for `C[C@@H](O)[C@H]1C(=O)N2C(C(=O)O)=C(c3ccc4c(c3)-c3ccc(C[N+]56CC[N+](CC(=O)N(C)C)(CC5)CC6)cc3C4=O)C[C@H]12.[Cl-].[Cl-]` were 4 µg/mL and 4 µg/mL.
`COC(=O)C[N+]12CC[N+](Cc3ccc4c(c3)C(=O)c3ccc(C5=C(C(=O)O)N6C(=O)[C@H]([C@@H](C)O)[C@H]6C5)cc3-4)(CC1)CC2.[Cl-].[Cl-]` displayed an MIC50 of 16 µg/mL and an MIC90 of 16 µg/mL.
`CNC(=O)C[N+]12CC[N+](Cc3ccc4c(c3)C(=O)c3ccc(C5=C(C(=O)O)N6C(=O)[C@H]([C@@H](C)O)[C@H]6C5)cc3-4)(CC1)CC2.[Cl-].[Cl-]` had an MIC50 of 2 µg/mL and an MIC90 of 4 µg/mL.
Take `C[C@@H](O)[C@H]1C(=O)N2C(C(=O)O)=C(c3ccc4c(c3)-c3ccc(C[N+]56CC[N+](CC(=O)c7ccccc7)(CC5)CC6)cc3C4=O)C[C@H]12.[Cl-].[Cl-]`: the MIC50 turned out to be 2 µg/mL and the MIC90 stood at 4 µg/mL.

A further assay deals with T1, MecA (Staphylococcus aureus, UniProt Q7DHH4).
T1 sequence (Q7DHH4 whole entry): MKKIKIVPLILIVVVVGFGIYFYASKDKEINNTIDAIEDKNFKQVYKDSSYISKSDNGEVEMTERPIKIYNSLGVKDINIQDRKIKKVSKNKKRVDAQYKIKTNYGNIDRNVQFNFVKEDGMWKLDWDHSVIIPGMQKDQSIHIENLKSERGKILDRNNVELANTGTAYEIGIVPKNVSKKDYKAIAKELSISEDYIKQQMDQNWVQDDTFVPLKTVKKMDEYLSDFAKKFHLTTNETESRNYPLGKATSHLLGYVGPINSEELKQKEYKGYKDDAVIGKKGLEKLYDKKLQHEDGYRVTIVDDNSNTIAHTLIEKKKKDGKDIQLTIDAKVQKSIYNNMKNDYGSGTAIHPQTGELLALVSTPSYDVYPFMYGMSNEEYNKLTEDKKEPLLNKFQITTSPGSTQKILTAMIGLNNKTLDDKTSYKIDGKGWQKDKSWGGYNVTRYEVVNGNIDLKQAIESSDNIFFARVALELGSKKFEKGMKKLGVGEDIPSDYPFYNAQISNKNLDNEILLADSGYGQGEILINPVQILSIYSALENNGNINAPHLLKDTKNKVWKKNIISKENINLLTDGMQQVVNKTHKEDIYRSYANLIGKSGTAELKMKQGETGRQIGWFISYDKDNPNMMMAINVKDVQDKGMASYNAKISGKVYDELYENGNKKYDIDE
Put plainly: Binding affinity against PBP2a receptor by competition analysis with [3H]benzylpenicillin using cell membrane fractions from the MRSA COL strain.
What is called IC50 is the midpoint of a concentration-inhibition curve. A low value points to higher potency. For the compound `C[C@@H](O)[C@H]1C(=O)N2C(C(=O)O)=C(c3ccc4c(c3)-c3ccc(C[N+]56CC[N+](CC(=O)Nc7cccc(C#N)c7)(CC5)CC6)cc3C4=O)[C@H](C)[C@H]12.[Cl-].[Cl-]`, the IC50 was 752 nM.
Same read-out and setting: the same measure for `CC[N+]12CC[N+](Cc3ccc4c(c3)C(=O)c3ccc(C5=C(C(=O)O)N6C(=O)[C@H]([C@@H](C)O)[C@H]6C5)cc3-4)(CC1)CC2.[Cl-].[Cl-]`: 416 nM.
For `C[C@@H](O)[C@H]1C(=O)N2C(C(=O)O)=C(c3ccc4c(c3)-c3ccc(C[N+]56CC[N+](CC(=O)c7ccccc7)(CC5)CC6)cc3C4=O)[C@H](C)[C@H]12.[Cl-].[Cl-]`, the IC50 is 880 nM.
For `C[C@@H](O)[C@H]1C(=O)N2C(C(=O)O)=C(c3ccc4c(c3)-c3ccc(C[N+]56CC[N+](CC#N)(CC5)CC6)cc3C4=O)[C@H](C)[C@H]12.[Cl-].[Cl-]`, the concentration for half-maximal inhibition (IC50) is 464 nM.
The same measure, in the same setting: the same measure for `C[C@@H](O)[C@H]1C(=O)N2C(C(=O)O)=C(c3ccc4c(c3)-c3ccc(C[N+]56CC[N+](CC(=O)Nc7ccccc7C(N)=O)(CC5)CC6)cc3C4=O)[C@H](C)[C@H]12.[Cl-].[Cl-]`: 1020 nM.
Still for that read-out and setting: the same measure for `C[C@@H](O)[C@H]1C(=O)N2C(C(=O)O)=C(c3ccc4c(c3)-c3ccc(C[N+]56CC[N+](C)(CC5)CC6)cc3C4=O)[C@H](C)[C@H]12.[Cl-].[Cl-]`: 1230 nM; for `C[C@@H](O)[C@H]1C(=O)N2C(C(=O)O)=C(c3ccc4c(c3)-c3ccc(C[N+]56CC[N+](CC(=O)Nc7cccc(CO)c7)(CC5)CC6)cc3C4=O)[C@H](C)[C@H]12.[Cl-].[Cl-]`: 1600 nM.
